Measurements: patent publication US10722514B2 (FLX Bio, Inc., priority 2017, dated 2020)
Counter-ions that a name gives are not always drawn.

biological target: T1, recombinant full-length USP7 (Homo sapiens, UniProt Q93009); assay: USP7-mediated ubiquitin-rhodamine cleavage assay; assay type: biochemical; conditions: recombinant full-length USP7 62 pM; ubiquitin-rhodamine 100 nM; 30-minute incubation with compound, 1 hour reaction at room temperature; read-out: Potency: USP7 IC50
T1 construct: A 25 μl reaction volume containing recombinant full-length USP7 (62 pM)
T1 sequence (Q93009 whole entry): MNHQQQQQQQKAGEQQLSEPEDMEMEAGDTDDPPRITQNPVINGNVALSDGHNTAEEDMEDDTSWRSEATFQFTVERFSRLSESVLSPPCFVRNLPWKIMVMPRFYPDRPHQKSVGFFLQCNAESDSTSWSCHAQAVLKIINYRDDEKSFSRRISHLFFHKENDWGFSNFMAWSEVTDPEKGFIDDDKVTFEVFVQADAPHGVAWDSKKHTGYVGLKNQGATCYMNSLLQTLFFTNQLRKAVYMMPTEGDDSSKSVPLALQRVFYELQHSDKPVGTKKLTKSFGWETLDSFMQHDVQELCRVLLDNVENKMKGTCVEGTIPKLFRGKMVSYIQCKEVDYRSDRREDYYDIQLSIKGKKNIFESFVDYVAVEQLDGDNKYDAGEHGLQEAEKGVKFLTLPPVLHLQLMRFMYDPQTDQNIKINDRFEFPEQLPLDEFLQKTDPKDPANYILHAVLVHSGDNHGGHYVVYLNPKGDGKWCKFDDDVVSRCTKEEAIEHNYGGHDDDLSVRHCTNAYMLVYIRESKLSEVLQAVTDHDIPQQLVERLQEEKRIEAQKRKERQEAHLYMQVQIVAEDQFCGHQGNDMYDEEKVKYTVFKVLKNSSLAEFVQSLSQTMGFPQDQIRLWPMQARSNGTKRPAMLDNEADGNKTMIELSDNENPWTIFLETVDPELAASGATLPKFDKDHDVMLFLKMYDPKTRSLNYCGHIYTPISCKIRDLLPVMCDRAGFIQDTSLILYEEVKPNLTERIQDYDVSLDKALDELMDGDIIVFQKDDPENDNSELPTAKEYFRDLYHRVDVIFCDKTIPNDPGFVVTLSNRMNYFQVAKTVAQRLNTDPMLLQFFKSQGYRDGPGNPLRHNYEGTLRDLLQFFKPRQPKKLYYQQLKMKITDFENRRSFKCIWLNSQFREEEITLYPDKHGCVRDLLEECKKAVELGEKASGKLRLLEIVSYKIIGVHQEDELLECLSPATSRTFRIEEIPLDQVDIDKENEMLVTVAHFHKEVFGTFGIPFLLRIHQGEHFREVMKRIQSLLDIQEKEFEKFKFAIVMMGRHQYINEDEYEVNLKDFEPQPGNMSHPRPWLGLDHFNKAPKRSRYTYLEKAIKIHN
In short: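 IC50 values came from fluorescence measured after a 1 h room-temperature reaction of 62 pM enzyme with 100 nM ubiquitin-rhodamine, following 30 min compound preincubation; fits used four parameters.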

Row | IC50 | Structure (SMILES)
1 | < 1000 nM | Cc1cc(Cl)cc(-c2ccnc3cc(CN4C(=O)CCC4=O)sc23)c1O[C@H]1CC[C@H](N2CCC2)C1 [Example 157, 1-((7-(2-(((1S,3S)-3-(Azetidin-1-yl)cyclopentyl)oxy)-5-chloro-3-methylphenyl)thieno[3,2-b]pyridin-2-yl)methyl)pyrrolidine-2,5-dione]
2 | < 1000 nM | Cc1cc(Cl)cc(-c2ncnc3cc(CN4C(=O)C5C(C4=O)C5(C)C)sc23)c1OCC1(C)CNC1 (stereo not shown) [Example 395, 3-[[4-[5-chloro-3-methyl-2-[(3-methylazetidin-3-yl)methoxy]phenyl]thieno[3,2-d]pyrimidin-6-yl]methyl]-6,6-dimethyl-3-azabicyclo[3.1.0]hexane-2,4-dione]
3 | < 1000 nM | Cc1cc(Cl)cc(-c2ccnc3cc([C@H](C)N4C(=O)CCC4=O)sc23)c1O[C@H]1CCCNC1 [Example 241, 1-((S)-1-(7-(5-Chloro-3-methyl-2-(((S)-piperidin-3-yl)oxy)phenyl)thieno[3,2-b]pyridin-2-yl)ethyl)pyrrolidine-2,5-dione]
4 | < 1000 nM | Cc1cc(Cl)cc(-c2ccnc3cc(CN4C(=O)C5CC5C4=O)sc23)c1O[C@@H]1CNC[C@@H]1C (stereo partly drawn) [Example 327, 3-[[7-[5-chloro-3-methyl-2-[(3S,4S)-4-methylpyrrolidin-3-yl]oxy-phenyl]thieno[3,2-b]pyridin-2-yl]methyl]-3-azabicyclo[3.1.0]hexane-2,4-dione]
5 | 10000 to 30000 nM | Cc1cc(Cl)cc(-c2ccnc3cc(CO)sc23)c1O[C@@H]1CN[C@@H](CO)C1 [Example 76, (7-(5-Chloro-2-(((3S,5R)-5-(hydroxymethyl)pyrrolidin-3-yl)oxy)-3-methylphenyl)thieno[3,2-b]pyridin-2-yl)methanol]
6 | < 1000 nM | Cc1cc(Cl)cc(-c2ccnc3cc(CN4C(=O)CCN(C)C4=O)sc23)c1OC1CCNCC1 [Example 203, 3-((7-(5-Chloro-3-methyl-2-(piperidin-4-yloxy)phenyl)thieno[3,2-b]pyridin-2-yl)methyl)-1-methyldihydropyrimidine-2,4(1H,3H)-dione]
7 | < 1000 nM | Cc1cc(Cl)cc(-c2ncnc3cc(CN4C(=O)C5C(C4=O)C5(C)C)sc23)c1O[C@@H]1CCNC[C@@H]1C (stereo partly drawn) [Example 365, 3-[[4-[5-chloro-3-methyl-2-[[(3S,4R)-3-methyl-4-piperidyl]oxy]phenyl]thieno[3,2-d]pyrimidin-6-yl]methyl]-6,6-dimethyl-3-azabicyclo[3.1.0]hexane-2,4-dione dihydrochloride]
8 | 1000 to 10000 nM | N#Cc1cc(-c2ccnc3cc(CN4C(=O)CCC4=O)sc23)c(O[C@@H]2CNC[C@@H]2F)cc1F [Example 135, 5-(2-((2,5-Dioxopyrrolidin-1-yl)methyl)thieno[3,2-b]pyridin-7-yl)-2-fluoro-4-(((3R,4S)-4-fluoropyrrolidin-3-yl)oxy)benzonitrile]
9 | < 1000 nM | Cc1cc(Cl)cc(-c2ccnc3cc(CN4C(=O)C5C(C4=O)C5(C)C)sc23)c1O[C@@H]1CNC[C@@H]1F (stereo partly drawn) [Example 312, 3-[[7-[5-chloro-2-[(3R,4S)-4-fluoropyrrolidin-3-yl]oxy-3-methyl-phenyl]thieno[3,2-b]pyridin-2-yl]methyl]-6,6-dimethyl-3-azabicyclo[3.1.0]hexane-2,4-dione]
10 | > 30000 nM | Cc1cc(Cl)cc(-c2ccnc3ccsc23)c1OC1CCC(=O)NC1 (stereo not shown) [Example 198, 5-(4-Chloro-2-methyl-6-(thieno[3,2-b]pyridin-7-yl)phenoxy)piperidin-2-one]
11 | 1000 to 10000 nM | CCC(O)c1cc2nccc(-c3cc(Cl)cc(C)c3OC3CCCCNC3)c2s1 (stereo not shown) [Example 265, 1-(7-(2-(Azepan-3-yloxy)-5-chloro-3-methylphenyl)thieno[3,2-b]pyridin-2-yl)propan-1-ol]

Row | Structure (SMILES) | IC50
12 | CCC(O)c1cc2nccc(-c3cc(Cl)cc(C)c3O[C@H]3C[C@H]4CC[C@@H](C3)N4)c2s1 (stereo partly drawn) [Example 199, 1-(7-(2-(((1R,3r,5S)-8-Azabicyclo[3.2.1]octan-3-yl)oxy)-5-chloro-3-methylphenyl)thieno[3,2-b]pyridin-2-yl)propan-1-ol] | 1000 to 10000 nM

same assay, conditions: recombinant full-length USP7 62 pM; ubiquitin-rhodamine 100 nM; 30-minute incubation, 1 hour reaction at room temperature; read-out: Potency (USP7 IC50)

Row | Structure (SMILES) | IC50
13 | COC[C@@H]1CCCN1C1CC(Oc2c(C)cc(Cl)cc2-c2ccnc3cc(Cn4c(=O)ccn(CC(F)(F)F)c4=O)sc23)C1 (stereo partly drawn) [Example 686, 3-[[7-[5-chloro-2-[3-[(2S)-2-(methoxymethyl)pyrrolidin-1-yl]cyclobutoxy]-3-methyl-phenyl]thieno[3,2-b]pyridin-2-yl]methyl]-1-(2,2,2-trifluoroethyl)pyrimidine-2,4-dione; 2,2,2-trifluoroacetic acid] | < 1000 nM
14 | Cc1cc(Cl)cc(-c2ccnc3cc(Cn4c(=O)ccn(CC(F)(F)F)c4=O)sc23)c1Oc1ccncc1 [Example 681, 3-[[7-[5-chloro-3-methyl-2-(4-pyridyloxy)phenyl]thieno[3,2-b]pyridin-2-yl]methyl]-1-(2,2,2-trifluoroethyl)pyrimidine-2,4-dione; 2,2,2-trifluoroacetic acid] | < 1000 nM

same assay, conditions: recombinant full-length USP7 62 pM; ubiquitin-rhodamine 100 nM; 30-minute pre-incubation, 1 hour reaction at room temperature; read-out: Potency (USP7 IC50)

Row | IC50 | Structure (SMILES)
15 | < 1000 nM | Cc1cc(Cl)cc(-c2ccnc3cc(Cn4c(=O)ccn(CC(F)(F)F)c4=O)sc23)c1O[C@H]1CCCNCC1 [Example 656, 3-[[7-[2-[(4S)-azepan-4-yl]oxy-5-chloro-3-methyl-phenyl]thieno[3,2-b]pyridin-2-yl]methyl]-1-(2,2,2-trifluoroethyl)pyrimidine-2,4-dione; 2,2,2-trifluoroacetic acid]
16 | < 1000 nM | Cc1cc(Cl)cc(-c2ccnc3cc(Cn4c(=O)ccn(CC(F)(F)F)c4=O)sc23)c1O[C@H]1CCNC[C@H]1C [Example 565, 3-[[7-[5-chloro-3-methyl-2-[[(3R,4S)-3-methyl-4-piperidyl]oxy]phenyl]thieno[3,2-b]pyridin-2-yl]methyl]-1-(2,2,2-trifluoroethyl)pyrimidine-2,4-dione]
17 | < 1000 nM | Cc1cc(Cl)cc(-c2ccnc3cc(Cn4c(=O)ccn(C)c4=O)sc23)c1O[C@H]1CCNC[C@H]1C [Example 453]
18 | < 1000 nM | Cc1cc(Cl)cc(-c2ncnc3cc(Cn4c(=O)ccn(C(C)C)c4=O)sc23)c1O[C@H]1CCCN(C(C)C)C1 [Example 513, 3-[[4-[5-chloro-2-[[(3S)-1-isopropyl-3-piperidyl]oxy]-3-methyl-phenyl]thieno[3,2-d]pyrimidin-6-yl]methyl]-1-isopropyl-pyrimidine-2,4-dione]
19 | < 1000 nM | Cc1cc(Cl)cc(-c2ccnc3cc(Cn4c(=O)ccn(C)c4=O)sc23)c1OC1CC[C@H](C)NC1 (stereo partly drawn) [Example 523, 3-[[7-[5-chloro-3-methyl-2-[[(6S)-6-methyl-3-piperidyl]oxy]phenyl]thieno[3,2-b]pyridin-2-yl]methyl]-1-methyl-pyrimidine-2,4-dione; 2,2,2-trifluoroacetic acid]
20 | < 1000 nM | Cc1cc(Cl)cc(-c2ncnc3cc(Cn4c(=O)c(F)cn(CC(F)(F)F)c4=O)sc23)c1O[C@H]1CCCNC1 [Example 556, 3-[[4-[5-chloro-3-methyl-2-[[(3S)-3-piperidyl]oxy]phenyl]thieno[3,2-d]pyrimidin-6-yl]methyl]-5-fluoro-1-(2,2,2-trifluoroethyl)pyrimidine-2,4-dione]
21 | 1000 to 10000 nM | Cc1c(F)c(Cl)cc(-c2ccnc3cc(CN4C(=O)CCC4=O)sc23)c1O[C@H]1CCCNC1 [Example 433, 1-[[7-[5-chloro-4-fluoro-3-methyl-2-[[(3S)-3-piperidyl]oxy]phenyl]thieno[3,2-b]pyridin-2-yl]methyl]pyrrolidine-2,5-dione; 2,2,2-trifluoroacetic acid]
22 | < 1000 nM | Cc1cc(Cl)cc(-c2ccnc3cc(Cn4c(=O)cc(C(F)(F)F)n(C)c4=O)sc23)c1O[C@H]1CCCNC1 [Example 515, 3-[[7-[5-chloro-3-methyl-2-[[(3S)-3-piperidyl]oxy]phenyl]thieno[3,2-b]pyridin-2-yl]methyl]-1-methyl-6-(trifluoromethyl)pyrimidine-2,4-dione; 2,2,2-trifluoroacetic acid]
23 | < 1000 nM | Cc1cc(Cl)cc(-c2ccnc3cc(Cn4c(=O)ccn(CC(F)(F)F)c4=O)sc23)c1O[C@@H]1CNC[C@@H]1C(F)F [Example 620, 3-[[7-[5-chloro-2-[(3S,4S)-4-(difluoromethyl)pyrrolidin-3-yl]oxy-3-methyl-phenyl]thieno[3,2-b]pyridin-2-yl]methyl]-1-(2,2,2-trifluoroethyl)pyrimidine-2,4-dione]
24 | < 1000 nM | Cc1cc(Cl)cc(-c2ccnc3cc(Cn4c(=O)ccn(C)c4=O)sc23)c1OC1CCNCC1(C)C (stereo not shown) [Example 546, 3-[[7-[5-chloro-2-[(3,3-dimethyl-4-piperidyl)oxy]-3-methyl-phenyl]thieno[3,2-b]pyridin-2-yl]methyl]-1-methyl-pyrimidine-2,4-dione; 2,2,2-trifluoroacetic acid]
25 | < 1000 nM | Cc1cc(Cl)cc(-c2ccnc3cc(Cn4c(=O)ccn(C5CCC5)c4=O)sc23)c1O[C@H]1CCCNC1 [Example 477, 3-[[7-[5-chloro-3-methyl-2-[[(3S)-3-piperidyl]oxy]phenyl]thieno[3,2-b]pyridin-2-yl]methyl]-1-cyclobutyl-pyrimidine-2,4-dione]
26 | < 1000 nM | Cc1cc(Cl)cc(-c2ncnc3cc(Cn4c(=O)ccn(C)c4=O)sc23)c1O[C@H]1CCCNCC1 [Example 582, 3-[[4-[2-[(4S)-azepan-4-yl]oxy-5-chloro-3-methyl-phenyl]thieno[3,2-d]pyrimidin-6-yl]methyl]-1-methyl-pyrimidine-2,4-dione]
27 | < 1000 nM | Cc1cc(C(F)(F)F)cc(-c2ccnc3cc(Cn4c(=O)ccn(C)c4=O)sc23)c1O[C@H]1CCCNC1 [Example 445]

Row | Structure (SMILES) | IC50
28 | Cc1cc(Cl)cc(-c2ccnc3cc(CN4C(=O)CCC4=O)sc23)c1OC1CC(C)(N)C1 (stereo not shown) [Example 444, 1-[[7-[2-(3-amino-3-methyl-cyclobutoxy)-5-chloro-3-methyl-phenyl]thieno[3,2-b]pyridin-2-yl]methyl]pyrrolidine-2,5-dione dihydrochloride] | < 1000 nM
